ChEMBL document CHEMBL1201862, “PubChem BioAssay data set” (2004)
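Five compound concentrations were applied to cells in 96-well plates for 48 hours; endpoints were derived by simple linear interpolation of the resulting dose-response curve. Here, GI50 denotes the concentration required for 50% inhibition of growth.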 Activity calls are given as the source filed them. No stated cut-off is given here; in the data, active = GI50 up to about 1.1 µM and inactive = higher.

Legend:
Experiment in all cases: NCI-60 cell line screen, 48 h
[1] = system: 786-0
[2] = system: A549
[3] = system: ACHN
[4] = system: BT-549
[5] = system: CCRF-CEM
[6] = system: COLO 205
[7] = system: DU-145
[8] = system: HCC 2998
[9] = system: HCT-15
[10] = system: HL-60
[11] = system: HOP-92
[12] = system: HT-29
[13] = system: Hs-578T
[14] = system: IGROV-1
[15] = system: K562
[16] = system: KM12
[17] = system: LOX IMVI
[18] = system: M14
[19] = system: MCF7
[20] = system: MDA-MB-231
[21] = system: MDA-MB-435
[22] = system: MDA-N
[23] = system: MOLT-4
[24] = system: Malme-3M
[25] = system: NCI-H226
[26] = system: NCI-H23
[27] = system: NCI-H460
[28] = system: NCI-H522
[29] = system: OVCAR-3
[30] = system: OVCAR-4
[31] = system: OVCAR-5
[32] = system: OVCAR-8
[33] = system: RPMI-8226
[34] = system: RXF 393
[35] = system: SF-268
[36] = system: SF-295
[37] = system: SK-MEL-28
[38] = system: SK-MEL-2
[39] = system: SK-MEL-5
[40] = system: SN12C
[41] = system: SNB-19
[42] = system: SNB-75
[43] = system: SR
[44] = system: SW-620
[45] = system: T47D
[46] = system: TK-10
[47] = system: U-251
[48] = system: UACC-257
[49] = system: UACC-62
[50] = system: UO-31
[51] = system: A498
[52] = system: CAKI-1
[53] = system: EKVX
[54] = system: HCT-116
[55] = system: HOP-62
[56] = system: PC-3
[57] = system: SK-OV-3

Q: `CN1CCN(C(=S)N(C(=O)c2ccco2)c2ccccc2)CC1` was tested. Which GI50 [1] did it give?
A: Its GI50 is > 100 µM (inactive).

Q: And the GI50 [2]?
A: Its GI50 is > 100 µM (inactive).

Q: What about the GI50 [3] of the same molecule?
A: The GI50 was > 100 µM (inactive).

Q: And the GI50 [4]?
A: The GI50 was > 100 µM (inactive).

Q: What about the GI50 [5] of the same molecule?
A: The GI50 was > 100 µM (inactive).

Q: And the GI50 [6]?
A: The GI50 was > 100 µM (inactive).

Q: And the GI50 [7]?
A: Its GI50 is > 100 µM (inactive).

Q: What about the GI50 [8] of the same molecule?
A: The GI50 was > 100 µM (inactive).

Q: And the GI50 [9]?
A: The GI50 was over 100 µM.

Q: And the GI50 [10]?
A: Its GI50 is > 100 µM (inactive).

Q: And the GI50 [11]?
A: Its GI50 is > 100 µM (inactive).

Q: And the GI50 [12]?
A: Its GI50 is > 100 µM (inactive).

Q: And the GI50 [13]?
A: Its GI50 is > 100 µM (inactive).

Q: What about the GI50 [14] of the same molecule?
A: Its GI50 is > 100 µM (inactive).

Q: What about the GI50 [15] of the same molecule?
A: Its GI50 is > 100 µM (inactive).

Q: What about the GI50 [16] of the same molecule?
A: Its GI50 is > 100 µM (inactive).

Q: What about the GI50 [17] of the same molecule?
A: The GI50 was > 100 µM (inactive).

Q: And the GI50 [18]?
A: Its GI50 is > 100 µM (inactive).

Q: And the GI50 [19]?
A: The GI50 was > 100 µM (inactive).

Q: What about the GI50 [20] of the same molecule?
A: Its GI50 is > 100 µM (inactive).

Q: And the GI50 [21]?
A: Its GI50 is > 100 µM (inactive).

Q: And the GI50 [22]?
A: The GI50 was > 100 µM (inactive).

Q: What about the GI50 [23] of the same molecule?
A: Its GI50 is > 100 µM (inactive).

Q: What about the GI50 [24] of the same molecule?
A: Its GI50 is > 100 µM (inactive).

Q: And the GI50 [25]?
A: Its GI50 is > 100 µM (inactive).

Q: And the GI50 [26]?
A: Its GI50 is > 100 µM (inactive).

Q: And the GI50 [27]?
A: The GI50 was > 100 µM (inactive).

Q: What about the GI50 [28] of the same molecule?
A: The GI50 was > 100 µM (inactive).

Q: And the GI50 [29]?
A: The GI50 was > 100 µM (inactive).

Q: And the GI50 [30]?
A: Its GI50 is > 100 µM (inactive).

Q: And the GI50 [31]?
A: The GI50 was > 100 µM (inactive).

Q: And the GI50 [32]?
A: The GI50 was > 100 µM (inactive).

Q: And the GI50 [33]?
A: Its GI50 is > 100 µM (inactive).

Q: What about the GI50 [34] of the same molecule?
A: The GI50 was > 100 µM (inactive).

Q: What about the GI50 [35] of the same molecule?
A: Its GI50 is > 100 µM (inactive).

Q: And the GI50 [36]?
A: Its GI50 is > 100 µM (inactive).

Q: And the GI50 [37]?
A: The GI50 was > 100 µM (inactive).

Q: What about the GI50 [38] of the same molecule?
A: Its GI50 is > 100 µM (inactive).

Q: And the GI50 [39]?
A: Its GI50 is > 100 µM (inactive).

Q: What about the GI50 [40] of the same molecule?
A: The GI50 was > 100 µM (inactive).

Q: And the GI50 [41]?
A: Its GI50 is > 100 µM (inactive).

Q: And the GI50 [42]?
A: Its GI50 is > 100 µM (inactive).

Q: What about the GI50 [43] of the same molecule?
A: The GI50 was > 100 µM (inactive).

Q: And the GI50 [44]?
A: Its GI50 is > 100 µM (inactive).

Q: What about the GI50 [45] of the same molecule?
A: The GI50 was > 100 µM (inactive).

Q: And the GI50 [46]?
A: Its GI50 is > 100 µM (inactive).

Q: And the GI50 [47]?
A: The GI50 was > 100 µM (inactive).

Q: What about the GI50 [48] of the same molecule?
A: Its GI50 is > 100 µM (inactive).

Q: And the GI50 [49]?
A: Its GI50 is > 100 µM (inactive).

Q: And the GI50 [50]?
A: The GI50 was > 100 µM (inactive).

Q: Which results are given for `Cc1cccc(/C=C2\CCCCCC2=O)c1`?
A: GI50 [1]: > 100 µM (inactive); GI50 [51]: > 100 µM (inactive); GI50 [2]: > 100 µM (inactive); GI50 [3]: > 100 µM (inactive); GI50 [4]: > 100 µM (inactive); GI50 [52]: > 100 µM (inactive); GI50 [5]: 28.8 µM (inactive); GI50 [6]: > 100 µM (inactive); GI50 [7]: > 100 µM (inactive); GI50 [53]: > 100 µM (inactive); GI50 [8]: > 100 µM (inactive); GI50 [54]: > 100 µM (inactive); GI50 [9]: > 100 µM; GI50 [10]: < 0.01 µM (active); GI50 [55]: > 100 µM (inactive); GI50 [11]: > 100 µM (inactive); GI50 [12]: > 100 µM (inactive); GI50 [13]: > 100 µM (inactive); GI50 [14]: > 100 µM (inactive); GI50 [15]: > 100 µM (inactive); GI50 [16]: > 100 µM (inactive); GI50 [17]: > 100 µM (inactive); GI50 [18]: > 100 µM (inactive); GI50 [20]: > 100 µM (inactive); GI50 [21]: > 100 µM (inactive); GI50 [22]: > 100 µM (inactive); GI50 [23]: 99.8 µM (inactive); GI50 [24]: > 100 µM (inactive); GI50 [25]: > 100 µM (inactive); GI50 [26]: > 100 µM (inactive); GI50 [27]: 99.8 µM (inactive); GI50 [28]: > 100 µM (inactive); GI50 [29]: > 100 µM (inactive); GI50 [30]: > 100 µM (inactive); GI50 [31]: > 100 µM (inactive); GI50 [56]: > 100 µM (inactive); GI50 [33]: 60.5 µM (inactive); GI50 [35]: > 100 µM (inactive); GI50 [36]: > 100 µM (inactive); GI50 [37]: > 100 µM (inactive); GI50 [38]: > 100 µM (inactive); GI50 [39]: 79.1 µM (inactive); GI50 [57]: > 100 µM (inactive); GI50 [40]: > 100 µM (inactive); GI50 [41]: > 100 µM (inactive); GI50 [42]: > 100 µM (inactive); GI50 [43]: > 100 µM (inactive); GI50 [44]: > 100 µM (inactive); GI50 [45]: > 100 µM (inactive); GI50 [46]: > 100 µM (inactive); GI50 [47]: > 100 µM (inactive); GI50 [48]: > 100 µM (inactive); GI50 [49]: > 100 µM (inactive); GI50 [50]: > 100 µM (inactive)
